Data reported in patent US8436013B2, “Compounds and methods for treatment of alpha-1 antitrypsin deficiency” (University of Florida Research Foundation, Inc., priority 2007, dated 2013).
Entries after “also recorded” stand apart in the source; their conditions may differ.

Columns and labels:
[1] = test system: transgenic mice carrying a human ATZ transgene; experiment: Serum AAT level (ELISA) in transgenic mice carrying a human ATZ transgene; format: in vivo; settings: treated for two weeks
Protocol: FIG. 6. Compounds according to the invention can increase AAT secretion in transgenic animals. The animals were treated for two weeks. Serum AAT levels were determined by ELISA assay.
Two test compounds were administered to transgenic mice (four animals per group, including control) carrying a human ATZ transgene to determine whether the compounds are capable of increasing AAT secretion in a transgenic animal model. The animals were treated for two weeks. Serum AAT levels were determined by ELISA assay.

[2] = target: T1, ATZ (Homo sapiens, UniProt P01009, E366K); experiment: ATZ accumulation in treated cells, Western blot; format: cell-based; settings: cells treated with polymer inhibitor vs controls
T1 construct: expressed in transfected cells; host or cells: CHO-ATZ cells
T1 sequence (P01009 25-418 E366K): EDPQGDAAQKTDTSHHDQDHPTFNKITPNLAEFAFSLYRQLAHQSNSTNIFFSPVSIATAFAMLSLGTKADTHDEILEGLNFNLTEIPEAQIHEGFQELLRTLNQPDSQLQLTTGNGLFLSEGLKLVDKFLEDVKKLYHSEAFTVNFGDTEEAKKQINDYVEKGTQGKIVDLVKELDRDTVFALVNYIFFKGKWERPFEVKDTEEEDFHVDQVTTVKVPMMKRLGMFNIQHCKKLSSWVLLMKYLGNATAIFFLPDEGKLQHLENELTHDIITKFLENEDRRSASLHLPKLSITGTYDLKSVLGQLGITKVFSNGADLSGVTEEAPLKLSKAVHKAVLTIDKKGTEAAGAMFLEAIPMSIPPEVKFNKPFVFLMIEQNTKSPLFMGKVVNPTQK
Protocol: FIG. 4. Polymer inhibitor (1,9-decadiene) reduces the ATZ accumulation in cells. Cells were treated with polymer inhibitor and harvested for Western blot analysis.
(§1) Compounds were used to treat CHO-ATZ cells at various concentrations. Cell supernatant was harvested at different time points. ELISA test was performed to determine the level of ATZ in the supernatant. The cells were also harvested for Western blot analysis.
We then examined these two potentially effective inhibitors. The cells were treated by the inhibitors, followed by protein extraction and Western blot analysis.

[3] = target: T1, ATZ; experiment: Pulse-chase (35S labelling, anti-AAT immunoprecipitation) ATZ secretion in CHO cells; format: cell-based; settings: CHO cells labeled with 35S, vs DMSO control
Text: FIG. 5. Polymer inhibitor (1,9-decadiene) increases ATZ secretion. The cells were labeled with ^35S and harvested at the indicated time points. The protein extracts were immunoprecipitated using anti-AAT antibody. The immunocomplexes were then resolved in PAGE gel. The intensity of AAT bands were then quantified and calculated. FIG. 5A is the cells treated with DMSO control; FIG. 5B represents result of cells with polymer inhibitor treatment. […] A non-denaturing gel was used to analyze cell extracts from compound-treated CHO ATZ cells.

[4] = target: T1, ATZ; experiment: ATZ secretion from CHO-ATZ cells, ELISA of culture supernatant; format: cell-based; settings: various concentrations, supernatants at 24, 48 and 72 hours, DMSO controls
Protocol: FIG. 3. Effects of small molecule compounds on AAT secretion in cells. The CHO-ATZ cells were treated with various concentrations of NCI compounds. The culture supernatants were harvested for ELISA analysis. The data represent the means from 4-separate experiments.
Compounds listed in Table 1 were obtained from NCI/DTP. The compounds were dissolved in DMSO. As the first step, the compounds were tested in CHO-ATZ cells. Various concentrations of the compounds were added to the cells. The supernatants were harvested at time points: 24, 48, and 72 hours. The samples were then used for ELISA assay for human AAT.
as §1

[5] = test system: AAT-Z transgenic mice; experiment: Liver histology (PASD staining, inflammation) in AAT-Z transgenic mice; format: in vivo; settings: i.p. injection for 7 days, vs control
Protocol: FIG. 7. Compounds according to the invention decrease AAT accumulation and reduce inflammation in liver cells compared to control. AAT-Z transgenic mice were treated by i.p. injection of a compound or control for 7 days, followed by collection of liver tissue.
Compounds according to the invention decrease AAT accumulation and reduce inflammation in liver cells compared to control. AAT-Z transgenic mice were treated by i.p. injection of a compound or control for 7 days, followed by collection of liver tissue.

[6] = test system: human ATZ transgenic model; settings: cited from earlier work

Structure (SMILES) | AAT serum level enhancement [1] | ATZ accumulation in cells (Western blot) [2] | ATZ secretion (pulse-chase) [3] | ATZ secretion (ELISA of supernatant) [4] | ATZ secretion (ELISA of supernatant) ([4]; listed as NSC 102789) | AAT accumulation in hepatocytes (PASD staining) [5] | liver tissue inflammation [5] | ATZ secretion (ELISA of supernatant) ([4]; listed as NSC 21034) | blood levels of AAT [6]
C=CCCCCCCC=C [1,9-decadiene] | more than two-fold | reduced amount of ATZ; also recorded: effectively reduce the accumulation of ATZ in cells | increases the ATZ secretion in the supernatant | effectively enhance ATZ secretion in the cells | appear to be effective for inhibition of ATZ secretion | decrease AAT accumulation in hepatocytes | reduced live tissue inflammation | – | –
O=C(O)/C=C/c1cc2c(cc1[N+](=O)[O-])OCO2 [3,4-methylenedioxy-6-nitrocinnamic acid] | more than two-fold | – | – | effectively enhance ATZ secretion in the cells | – | decrease AAT accumulation in hepatocytes | reduced live tissue inflammation | appear to be effective for inhibition of ATZ secretion | –
O=C(O)CCCc1ccccc1 [4-phenylbutyric acid] | – | – | – | – | – | – | – | – | can increase blood levels of AAT
